Results reported in publication PMC10582333 (Frontiers in Pharmacology, 2023).
Read-outs that look alike come from different tables or passages of the source. Values belong to the compound of their own block, whether it stands above or below them.

Columns and labels:
[1] = tested on: castration-resistant prostate cancer (CRPC); conditions: cited from earlier work
glucocorticoid receptor [2] = target: T1, glucocorticoid receptor (Homo sapiens, UniProt P04150); experiment: AR (ARE) luciferase reporter assay, LNCaP-GR cells with DEX (GR-driven); type: cell-based
T1 sequence (P04150 1-777): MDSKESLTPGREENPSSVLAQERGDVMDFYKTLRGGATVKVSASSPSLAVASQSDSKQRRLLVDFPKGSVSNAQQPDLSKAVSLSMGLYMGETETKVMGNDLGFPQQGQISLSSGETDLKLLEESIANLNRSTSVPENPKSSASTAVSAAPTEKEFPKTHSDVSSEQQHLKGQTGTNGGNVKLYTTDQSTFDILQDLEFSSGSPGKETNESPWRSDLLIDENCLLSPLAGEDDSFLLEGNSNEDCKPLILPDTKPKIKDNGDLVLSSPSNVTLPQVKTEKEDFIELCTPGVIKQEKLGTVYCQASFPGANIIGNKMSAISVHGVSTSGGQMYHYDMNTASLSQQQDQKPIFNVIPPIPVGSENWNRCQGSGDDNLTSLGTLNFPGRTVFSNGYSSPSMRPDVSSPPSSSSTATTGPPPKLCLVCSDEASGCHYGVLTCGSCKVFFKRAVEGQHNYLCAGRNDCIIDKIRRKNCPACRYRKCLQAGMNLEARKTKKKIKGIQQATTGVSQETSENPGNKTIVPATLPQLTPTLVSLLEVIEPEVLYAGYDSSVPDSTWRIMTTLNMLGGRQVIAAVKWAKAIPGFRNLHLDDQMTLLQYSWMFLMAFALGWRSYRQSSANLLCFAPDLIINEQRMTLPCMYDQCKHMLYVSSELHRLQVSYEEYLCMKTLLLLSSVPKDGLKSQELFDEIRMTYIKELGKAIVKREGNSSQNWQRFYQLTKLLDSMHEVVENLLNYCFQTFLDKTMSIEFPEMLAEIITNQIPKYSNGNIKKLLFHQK
Procedure: (§1) The 22RV1, LNCaP and PC3 cell lines were stably transfected with a PGL4.2 luciferase reporter (Promega, Madison, USA). This reporter contains a sequence (3xgtaattgcagaacagcaagtgctagctctc) representing the wild type of Androgen Response Element (ARE) derived from the Prostate-Specific Antigen (PSA) promoter. […] This transfection was accomplished using Lipofectamine 3000 (Thermo Fisher Scientific, Waltham, MA). Stable clones were selected and maintained with puromycin (0.5 μg/mL). […] The pcDNA5 plasmid (Thermo Fisher Scientific, Waltham, MA), carrying the full open reading frame of GR, was transfected into LNCaP cells, and hygromycin (50 μg/mL) was employed to select and maintain stable clones.
(§2) 10^4 reporter cells per well of 96-well plate were seeded in RPMI1640 media supplemented with 5% dialysis activated carbon treated FBS, 50 μg/mL Kanamycin in a 37°C, 5% CO2 incubator for 48 h. Cells were treated with herbal extracts at 30, 100, 300, and 600 μg/mL for 24 h in a 37°C-CO2 incubator. […] Dexamethasone (50 nM) was used to stimulate glucocorticoid receptor activity. Cells were lysed using luciferase lysis buffer after which luciferase buffer with luciferin was added to generate luminescence. Luminescence was recorded using a luminescence microplate reader. The IC50 is the concentration of treatment agent required to reduce the measured luminescence to half of its maximal value.
(§3) GAPDH was used as protein loading control for normalization. […] Details of experimental procedures are given in Materials and methods.

glucocorticoid receptor [3] = target: T1, glucocorticoid receptor; experiment: AR (ARE) luciferase reporter assay, 22RV1 cells with DEX (GR-driven); type: cell-based; parameters: AR luciferase reporter assay using 22RV1 cells that express GR; endogenous in cells; host or cells: 22RV1
Procedure: as §1, §2, §3

glucocorticoid receptor [4] = target: T1, glucocorticoid receptor; experiment: AR (ARE) luciferase reporter assay, PC3 cells (no ligand or DEX, GR-driven); type: cell-based; parameters: PC3 cells that only express GR and respond solely to DEX; endogenous in cells; host or cells: PC3; conditions: 24 h
Procedure: as §1, §2, §3

22RV1 tumor = experiment: 22RV1 xenograft tumor growth in NCR-nude mice; type: in vivo, human; conditions: enzalutamide alone, 5 mg/kg po QD, 7 days
From the text: Differences were considered statistically significant at p < 0.05.

androgen receptor [5] = target: T2, androgen receptor (Homo sapiens, UniProt P10275, T878A); experiment: cell-based
T2 construct: LNCaP cells that only express AR and respond solely to DHT; endogenous in cells; host or cells: LNCaP; LNCaP-GR
T2 sequence (P10275 1-920 T878A): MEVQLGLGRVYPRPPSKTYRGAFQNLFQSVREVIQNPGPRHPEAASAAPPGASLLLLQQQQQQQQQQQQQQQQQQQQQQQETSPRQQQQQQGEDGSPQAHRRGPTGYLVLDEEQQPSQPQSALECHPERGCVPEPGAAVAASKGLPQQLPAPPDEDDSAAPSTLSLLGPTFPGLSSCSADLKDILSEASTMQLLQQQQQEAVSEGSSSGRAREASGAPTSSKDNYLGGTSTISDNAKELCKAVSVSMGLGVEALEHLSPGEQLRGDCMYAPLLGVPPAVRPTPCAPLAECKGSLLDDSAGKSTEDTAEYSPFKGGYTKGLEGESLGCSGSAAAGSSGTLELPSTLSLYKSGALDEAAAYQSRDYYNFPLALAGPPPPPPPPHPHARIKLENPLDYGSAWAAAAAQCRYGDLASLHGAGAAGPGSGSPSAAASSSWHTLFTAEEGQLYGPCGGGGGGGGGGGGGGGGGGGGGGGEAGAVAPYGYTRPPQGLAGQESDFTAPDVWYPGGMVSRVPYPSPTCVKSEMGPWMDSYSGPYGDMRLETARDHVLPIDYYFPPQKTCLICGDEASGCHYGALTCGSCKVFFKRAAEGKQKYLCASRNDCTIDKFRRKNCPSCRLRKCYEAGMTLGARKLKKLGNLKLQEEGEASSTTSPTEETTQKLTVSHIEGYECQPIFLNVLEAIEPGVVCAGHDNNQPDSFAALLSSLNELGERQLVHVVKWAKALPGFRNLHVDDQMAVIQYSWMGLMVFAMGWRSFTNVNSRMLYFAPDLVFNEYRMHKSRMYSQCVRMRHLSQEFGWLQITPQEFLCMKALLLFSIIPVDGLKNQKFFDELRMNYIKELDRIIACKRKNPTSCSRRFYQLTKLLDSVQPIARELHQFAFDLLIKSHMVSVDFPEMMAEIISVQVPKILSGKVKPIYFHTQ
Procedure: as §1, §2, §3

androgen receptor [6] = target: T2, androgen receptor; experiment: AR (ARE) luciferase reporter assay, LNCaP cells (no ligand or DHT); type: cell-based
Procedure: as §1, §2, §3

androgen receptor [7] = target: androgen receptor (Homo sapiens, UniProt P10275); type: cell-based
Chain of androgen receptor (Homo sapiens, UniProt P10275) (P10275 whole entry): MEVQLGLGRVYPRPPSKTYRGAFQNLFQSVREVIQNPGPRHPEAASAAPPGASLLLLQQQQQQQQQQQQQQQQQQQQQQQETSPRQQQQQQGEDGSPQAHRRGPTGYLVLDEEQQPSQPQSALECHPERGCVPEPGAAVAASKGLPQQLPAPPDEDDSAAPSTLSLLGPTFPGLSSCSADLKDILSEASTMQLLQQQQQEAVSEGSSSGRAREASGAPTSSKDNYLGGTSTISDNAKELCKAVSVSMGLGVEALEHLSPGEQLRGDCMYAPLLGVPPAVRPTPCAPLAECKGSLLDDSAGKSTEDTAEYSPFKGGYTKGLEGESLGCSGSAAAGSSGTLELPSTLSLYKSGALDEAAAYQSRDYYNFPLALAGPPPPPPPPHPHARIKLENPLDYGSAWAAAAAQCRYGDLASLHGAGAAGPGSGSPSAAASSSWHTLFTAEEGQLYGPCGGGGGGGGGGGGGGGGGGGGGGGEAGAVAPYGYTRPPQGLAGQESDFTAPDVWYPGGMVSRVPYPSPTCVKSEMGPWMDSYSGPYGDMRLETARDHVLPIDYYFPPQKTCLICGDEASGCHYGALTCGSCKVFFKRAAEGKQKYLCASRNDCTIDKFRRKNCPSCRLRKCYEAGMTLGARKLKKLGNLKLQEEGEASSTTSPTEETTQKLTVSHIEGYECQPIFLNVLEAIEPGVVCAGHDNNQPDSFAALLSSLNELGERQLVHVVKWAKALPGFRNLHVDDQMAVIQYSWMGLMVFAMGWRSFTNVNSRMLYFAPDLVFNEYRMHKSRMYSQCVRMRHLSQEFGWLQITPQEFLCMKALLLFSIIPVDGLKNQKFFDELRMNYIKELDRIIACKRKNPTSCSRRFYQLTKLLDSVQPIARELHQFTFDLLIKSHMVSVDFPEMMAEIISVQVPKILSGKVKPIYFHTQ
Procedure: as §1
as §2, with “value. […]” for “value.”

[8] = ref Rice et al., 2019; cited from earlier work
From the text: Prostate cancer is the second leading cause of cancer death among men in the United States. According to the National Cancer Institute over 3 million men in the United States are living with prostate cancer, with 288,300 additional cases and 34,700 deaths expected in 2023. Androgen receptor (AR) signaling plays a key role in development of Benign prostatic hyperplasia (BPH) and prostate cancer ([Shiota et al., 2011]; [Gioeli and Paschal, 2012]; [Mills, 2014]; [Wong et al., 2014]; [Tan et al., 2015]). Therefore, androgen or Androgen R targeted therapy has become a major focus for the prevention ...

AR = tested on: AR; parameters: method as in Rice et al., 2019; conditions: ref Rice et al., 2019; cited from earlier work
From the text: Prostate cancer is the second leading cause of cancer death among men in the United States. […] Therefore, androgen or Androgen R targeted therapy has become a major focus for the prevention ...

[9] = tested on: de novo protein synthesis; parameters: method as in Zalacain et al., 1982; Chan et al., 2004; Keysar et al., 2020; conditions: ref Zalacain et al., 1982; Chan et al., 2004; Keysar et al., 2020; cited from earlier work
[10] = of patients, ref Cattrini et al., 2022
[11] = IC50 for ARE-luciferase reporter, ligand: -
[12] = IC50 for ARE-luciferase reporter, ligand: DEX (50 nM)
[13] = IC50 for ARE-luciferase reporter
[14] = read-out: IC50 for ARE-luciferase reporter

- inhibition of DEX-induced luciferase activity (glucocorticoid receptor [2]; LNCaP-GR, DEX 50 nM, 24 h): no effect
- inhibition of DEX-induced luciferase activity (glucocorticoid receptor [4]; DEX 50 nM): no effect
Compound: CNC(=O)c1ccc(N2C(=S)N(c3ccc(C#N)c(C(F)(F)F)c3)C(=O)C2(C)C)cc1F [Enzalutamide]
- grade 3 adverse events or higher [1, 10]: approximately 25%
- most common side effects ([1]; ref Cattrini et al., 2022): fatigue, hypertension, diarrhea, and weight loss
- inhibition of Dex-induced luciferase activity (glucocorticoid receptor [3]; 22RV1, DEX 50 nM, 24 h): unable to inhibit GR-mediated luciferase activity
- 22RV1 tumor growth (22RV1 tumor): not found to substantially decrease the growth of 22RV1 tumors

Compound: COc1ccc(C[C@H]2C(=O)N[C@@H](C)C(=O)N(C)[C@H]3Cc4ccc(cc4)Oc4cc(ccc4O)C[C@@H](C(=O)N[C@H](C)C(=O)N[C@@H](C)C(=O)N2C)N(C)C3=O)cc1 [RA-V, Deoxybouvardin]
- IC50 (androgen receptor [5]; LNCaP-GR, ligand: +DHT (25 nM), 24 h, read-out: IC50 for ARE-luciferase reporter): 4.1 ± 1.3 nM
- IC50 (androgen receptor [5]; LNCaP-GR, ligand: -, 24 h, read-out: IC50 for ARE-luciferase reporter): > 100 nM
- IC50 (glucocorticoid receptor [2]; LNCaP-GR, ligand: +DEX (50 nM), 24 h, read-out: IC50 for ARE-luciferase reporter): 7.8 ± 2.2 nM
- IC50 (androgen receptor [6]; LNCaP, ligand: +DHT (25 nM), 24 h, read-out: IC50 for ARE-luciferase reporter): 5.3 ± 1.4 nM
- IC50 (androgen receptor [6]; LNCaP, ligand: -, 24 h, read-out: IC50 for ARE-luciferase reporter): > 100 nM
- IC50 (glucocorticoid receptor [3]; 22RV1, ligand: +DEX (50 nM), 24 h, read-out: IC50 for ARE-luciferase reporter): 22 ± 5 nM
- IC50 (glucocorticoid receptor [4]; ligand: -, read-out: IC50 for ARE-luciferase reporter): 40 ± 19 nM
- IC50 (glucocorticoid receptor [4]; ligand: DEX (50 nM), read-out: IC50 for ARE-luciferase reporter): 5.7 ± 2.3 nM

Compound: COc1ccc(C[C@H]2C(=O)N[C@@H](C)C(=O)N(C)[C@H]3Cc4ccc(cc4)Oc4cc(ccc4OC)C[C@@H](C(=O)N[C@H](C)C(=O)N[C@@H](C)C(=O)N2C)N(C)C3=O)cc1 [RA-VII]
- IC50 (glucocorticoid receptor [2]): 5.6 ± 2.3 nM
- IC50 (glucocorticoid receptor [3]): 13.5 ± 5 nM
- IC50 (glucocorticoid receptor [4]; [11]): 32 ± 9 nM
- IC50 (glucocorticoid receptor [4]; [12]): 3.6 ± 0.6 nM

Compound: COc1ccc(C[C@H]2C(=O)N[C@@H](C)C(=O)N(C)[C@H]3Cc4ccc(cc4)Oc4cc(ccc4O)C[C@@H](C(=O)N[C@H](C)C(=O)N[C@@H](CCC(=O)O)C(=O)N2C)N(C)C3=O)cc1 [RA-XI]
- IC50 (androgen receptor [5]; [13]): > 250 nM
- IC50 (androgen receptor [5]; [14]): > 250 nM
- comparative potency (anti-AR and anti-GR activity) (androgen receptor [7]): significantly reduce the anti-AR and anti-GR activity
- inhibition of luciferase activity in any assay (androgen receptor [7]): did not inhibit luciferase activity in any assay
- IC50 (glucocorticoid receptor [2]): > 250 nM
- IC50 (androgen receptor [6]; [13]): > 250 nM
- IC50 (androgen receptor [6]; [14]): > 250 nM
- IC50 (glucocorticoid receptor [3]): > 250 nM
- IC50 (glucocorticoid receptor [4]; [11]): > 250 nM
- IC50 (glucocorticoid receptor [4]; [12]): > 250 nM

Compound: CNC(=O)c1ccc(N2C(=S)N(c3cnc(C#N)c(C(F)(F)F)c3)C(=O)C23CCC3)cc1F [apalutamide]
- grade 3 adverse events or higher [1, 10]: approximately 25%
- most common side effects ([1]; ref Cattrini et al., 2022): fatigue, hypertension, diarrhea, and weight loss
- brain penetrance [8]: reductions in brain penetrance
- selectivity and potency against AR (AR): higher selectivity and potency against AR

Compound: CC(O)c1cc(C(=O)N[C@@H](C)Cn2ccc(-c3ccc(C#N)c(Cl)c3)n2)[nH]n1 (stereo partly shown) [darolutamide]
- grade 3 adverse events or higher ([1]; human, in vivo): approximately 25%
- most common side effects ([1]; human, in vivo): fatigue, hypertension, diarrhea, and weight loss
- brain penetrance [8]: reductions in brain penetrance
- selectivity and potency against AR (AR): higher selectivity and potency against AR

Compound: Bouvardin
- inhibition of de novo protein synthesis [9]: can inhibit de novo protein synthesis
